Reference: patent publication US6533767B2, “Methods for enhancing fluid flow through an obstructed vascular site, and systems and kits for use in practicing the same” (Corazon Technologies, Inc., priority 2000, dated 2003)

Key:
[1] = In vitro cholesterol dissolution; assay type: physicochemical; conditions: for effectiveness in solvating / dissolving crystalline cholesterol: 0.1 grams cholesterol in 50 mLs 1% surfactant solution; for cholesterol crystal presence or absence and crystal morphology (light microscopy): 0.1 grams cholesterol in 50 mLs surfactant solution, agitation up to 1 hour, 200x magnification, time as in value
Procedure: Dissolution of cholesterol was examined in different solutions of bile salts, non-ionic, and ionic surfactants. Solutions of bile salts were prepared as follows: 0.5% solutions of cholic, dehydrocholic, deoxycholic, lithocholic acids were made by dissolving 0.5 grams of the free acid powders in 100 mL H2O previously adjusted to pH=12 with sodium hydroxide. Solutions were then adjusted to pH=7.5 with HCl. 1% surfactant solutions were made by dilution of concentrated stock solutions: Benzalkonium chloride, nonoxynol-9, sodium dodecyl sulfate, were prepared immediately prior to use. Dissolution studies were performed by adding 0.1 grams cholesterol powdered crystals to 50 mLs of the above surfactants with agitation on a rocker table for 1 hour. Solutions were then examined under light microscopy 200× magnification and cholesterol crystal presence or absence and crystal morphology recorded for each solution.

[2] = In vitro thrombus removal in cadaveric femoral arteries; conditions: 1% solution, approximately 60 cc per treatment over a 10 minute interval
Procedure: Fresh cadaveric femoral arteries which contained soft clots partially occluding the. vessel lumen were used. […] Vessels were treated with a 1% surfactant solution of sodium dodecyl sulfate (SDS, Sigma chemicals), prepared immediately prior to use. Treatment consisted of injection of surfactant through a 35 cc male luer syringe and flow characteristics recorded.

[3] = Solution containing surfactant and acid components, effect on cholesterol crystals; assay type: physicochemical; conditions: SDS 1%; combination with 0.1N HCl pH 1.0, isotonic (300 mOsmol)
Procedure: A solution of sodium dodecyl sulfate (SDS) (a.k.a. sodium lauryl sulfate) (1%) and 0.1N hydrochloric acid (pH 1.0) made isotonic (300 mOsmol) with sodium chloride was prepared and compared with a solution of sodium dodecyl sulfate solution (1%). […] This combination solution can be buffered with sodium bicarbonate (NaHCO3) in the same manner that the hydrochloric acid solution is buffered with NaHCO3, as described in the specification supra.

Row | crystal dissolution ([1]; by 1 hour) | Molecule | effectiveness in solvating / dissolving crystalline cholesterol [1] | cholesterol crystal presence or absence and crystal morphology (light microscopy) [1] | flow through vessel after treatment [2] | removal of soft thrombus [2] | micelle formation around cholesterol crystals [3]
1 | approximately 50% | Benzalkonium chloride | appeared to dissolve most of the crystalline cholesterol | still crystals apparent after 10 minutes | – | – | –
2 | – | CCCCCCCCCCCCOS(=O)(=O)[O-].[Na+] [Sodium dodecyl sulfate, sodium dodecyl sulfate] | most effective in solvating | no free crystals were observed 5 minutes after cholesterol addition | Flow was reestablished in all samples | effective in removing soft thrombus from occluded femoral arteries | formed micelles around cholesterol crystals making the cholesterol crystals water soluble
3 | – | nonoxynol-9 | – | little or no observable effect on the crystal structure | – | – | –
